# Test results from the supplement of paper PMC13380429.
# ± gives the standard deviation of the averaged measurements.
# Assays:
# Conditions in all cases: 72 h
# [1] = system: Caco-2; assay: cell viability relative to DMSO; higher = less toxic
# [2] = system: Calu-3; assay: as above
# [3] = system: HepG2; assay: as above
# [4] = system: U2OS; assay: as above
# [5] = system: Vero E6; assay: as above
# [6] = system: Caco-2; assay: relative viability EC50 (midpoint between 100% and the lowest measured viability); higher = less toxic
# [7] = system: Calu-3; assay: as above
# [8] = system: HepG2; assay: as above
# [9] = system: U2OS; assay: as above
# [10] = system: Vero E6; assay: as above
# [11] = system: Caco-2; assay: drug sensitivity score (DSS) for viability; higher = more toxic; extreme values may be limits of the assay
# [12] = system: Calu-3; assay: as above
# [13] = system: HepG2; assay: as above
# [14] = system: U2OS; assay: as above
# [15] = system: Vero E6; assay: as above
Structure (SMILES),cell viability ([1]; 1 nM),cell viability ([1]; 10 nM),cell viability ([1]; 100 nM),cell viability ([1]; 1000 nM),cell viability ([1]; 10000 nM),cell viability ([2]; 1 nM),cell viability ([2]; 10 nM),cell viability ([2]; 100 nM),cell viability ([2]; 1000 nM),cell viability ([2]; 10000 nM),cell viability ([3]; 1 nM),cell viability ([3]; 10 nM),cell viability ([3]; 100 nM),cell viability ([3]; 1000 nM),cell viability ([3]; 10000 nM),cell viability ([4]; 1 nM),cell viability ([4]; 10 nM),cell viability ([4]; 100 nM),cell viability ([4]; 1000 nM),cell viability ([4]; 10000 nM),cell viability ([5]; 1 nM),cell viability ([5]; 10 nM),cell viability ([5]; 100 nM),cell viability ([5]; 1000 nM),cell viability ([5]; 10000 nM),relative viability EC50 [6],relative viability EC50 [7],relative viability EC50 [8],relative viability EC50 [9],relative viability EC50 [10],drug sensitivity score [11],drug sensitivity score [12],drug sensitivity score [13],drug sensitivity score [14],drug sensitivity score [15]
O=C(CN1CCNCC1)NC1CCCCC1 [esaprazole],105%,92.2%,105%,98.5%,98.6%,98.3%,98%,101%,104%,97.1%,104%,99.5%,100%,102%,90.1%,99%,100%,102%,100%,108%,103%,107%,99.1%,107%,98.5%,> 10 µM,> 10 µM,> 10 µM,> 10 µM,> 10 µM,0,0,0,0,0
C[C@]12CC[C@@H]3c4ccc(OS(=O)(=O)O)cc4CC[C@H]3[C@@H]1CCC2=O [estropipate],102%,96.7%,112%,109%,93.4%,99.1%,99.1%,99.3%,111%,103%,111%,110%,103%,103%,97.4%,93.4%,95.6%,95%,98%,108%,99.5%,95.2%,102%,84.8%,101%,> 10 µM,> 10 µM,> 10 µM,> 10 µM,> 10 µM,0,0,0,0,0
Cc1ccc(-c2ncc(Cl)cc2-c2ccc(S(C)(=O)=O)cc2)cn1 [etoricoxib],95.3%,108%,92.5%,99.9%,104%,94.7%,99%,90%,104%,101%,101%,90.5%,99.5%,104%,98.6%,98.1%,103%,97.2%,98.5%,94.2%,96.4%,101%,96.5%,99.2%,94%,> 10 µM,> 10 µM,> 10 µM,> 10 µM,> 10 µM,0,0,0,0,0
CCOCCOc1ccccc1C(N)=O [etosalamide],91.3%,89.5%,108%,97.9%,100%,102%,90.5%,97.6%,101%,98.7%,111%,104%,86.7%,101%,92.3%,102%,99.9%,102%,101%,97.7%,104%,93.7%,93.3%,95.4%,96.1%,> 10 µM,> 10 µM,> 10 µM,> 10 µM,> 10 µM,0,0,0,0,0
COc1ccc(-c2cc(=O)c3c(O)c(OC)c(O)cc3o2)cc1OC [eupatilin],98.3%,94.8%,94.7%,96.9%,92.9%,92.2%,101%,92.6%,93.9%,78.5%,94.2%,99%,85.9%,99.5%,90.1%,105%,97.3%,102%,99.7%,101%,99.6%,102%,97.2%,97.3%,97.8%,> 10 µM,> 10 µM,> 10 µM,> 10 µM,> 10 µM,0,0.9,0,0,0
Cn1cc([S+](C)[O-])c(=O)c2ccc(F)cc21 (stereo not given) [flosequinan],110%,95.3%,107%,102%,95.7%,98.6%,95.5%,99.6%,101%,110%,103%,97.9%,97%,95.4%,86.9%,104%,95.3%,98.5%,99%,102%,97.5%,97.7%,98.8%,96.3%,96.4%,> 10 µM,> 10 µM,> 10 µM,> 10 µM,> 10 µM,0,0,0.1,0,0
O=C(O)c1ccccc1Nc1cccc(C(F)(F)F)c1 [flufenamic-acid],93.5%,96.3%,85.4%,101%,96.2%,101%,108%,95.9%,112%,92.2%,93.7%,103%,101%,102%,101%,98.5%,98.1%,95.5%,97.5%,100%,104%,94.2%,100%,96%,95.8%,> 10 µM,> 10 µM,> 10 µM,> 10 µM,> 10 µM,0,0,0,0,0
CCOC(=O)c1ncn2c1CN(C)C(=O)c1cc(F)ccc1-2 [flumazenil],95.2%,99.6%,99.1%,102%,105%,89.2%,87.6%,87.1%,90.8%,87%,97.8%,95%,97.8%,90.7%,95.6%,99.2%,103%,97.3%,103%,97.8%,102%,97.2%,100%,95.4%,98.8%,> 10 µM,> 10 µM,> 10 µM,> 10 µM,> 10 µM,0,0,0,0,0
C[C@H]1NCc2cc(-c3ccc4c(=O)c(C(=O)O)cn(C5CC5)c4c3OC(F)F)ccc21 [garenoxacin],96.1%,91.2%,102%,95.9%,98.6%,107%,92.3%,105%,106%,104%,95.2%,97.4%,92.3%,109%,99%,102%,96.3%,99.2%,98%,99.7%,85.3%,97%,85.4%,91.7%,104%,> 10 µM,> 10 µM,> 10 µM,> 10 µM,> 10 µM,0,0,0,0,0
COC(=O)C1=CO[C@@H](O)[C@@H]2C(CO)=CC[C@H]12 [genipin],91.6%,96.1%,102%,96.8%,88.5%,88%,92.8%,83.6%,85.1%,87%,87.6%,105%,103%,106%,113%,93.8%,94.3%,99.7%,92.8%,100%,90.1%,101%,95.7%,99.5%,106%,> 10 µM,> 10 µM,> 10 µM,> 10 µM,> 10 µM,0.1,2.4,0,0,0
CC[n+]1c(-c2ccccc2)c2cc(N)ccc2c2ccc(N)cc21 [homidium],95.9%,93.2%,87.2%,55.4%,4.5%,103%,98.9%,93%,97.7%,26.4%,107%,101%,88%,64.5%,35.7%,97.1%,96%,98.4%,87.8%,39.2%,92.8%,100%,90.5%,94.5%,85.3%,0.984 µM,2.94 µM,0.679 µM,1.74 µM,> 10 µM,10.7,4.4,8.1,5.3,0.1
CC(C)Cc1ccc(C(C)C(=O)O)cc1 (stereo not given) [ibuprofen],97.4 ± 5.4%,98.1 ± 3.7%,95.9 ± 2%,103 ± 4.1%,104 ± 3.2%,105 ± 5.7%,98.9 ± 6.4%,93 ± 1.3%,94.6 ± 8.3%,102 ± 7.8%,110 ± 5.8%,96.3 ± 1.8%,104 ± 8.1%,102 ± 5.4%,108 ± 9.9%,99.7 ± 3.4%,103 ± 4.4%,100.6 ± 0.96%,102 ± 2.5%,105 ± 2.5%,96.9 ± 0.57%,96.9 ± 2.5%,94.95 ± 0.071%,92.2 ± 2.9%,104.25 ± 0.071%,> 10 µM,> 10 µM,> 10 µM,> 10 µM,> 10 µM,0,0,0,0,0
O=C(NC1CCN(CCc2c[nH]c3ccccc23)CC1)c1ccccc1 [indoramin],89.4%,98.2%,101%,101%,99.5%,90.4%,92.8%,103%,101%,107%,100%,92.9%,105%,98.9%,95.9%,95.3%,99.3%,97.5%,104%,100%,96.7%,94.4%,98.7%,99.7%,102%,> 10 µM,> 10 µM,> 10 µM,> 10 µM,> 10 µM,0,0,0,0,0
O=C(O)CSc1nnc(Br)n1-c1ccc(C2CC2)c2ccccc12 [lesinurad],98.4%,90.9%,91.4%,94%,99.7%,99%,101%,106%,95.5%,102%,98.8%,102%,99.4%,84.8%,99.7%,99.6%,103%,95.2%,95.9%,96.3%,99.4%,100%,99.9%,102%,99.5%,> 10 µM,> 10 µM,> 10 µM,> 10 µM,> 10 µM,0,0,0,0,0
